Laboratory results: PubChem BioAssay AID248 (DTP/NCI, 2004)
Several values for one entry are separate records, joined by “and”; a condition that tells them apart may be missing. Equal values may be shown once. Inconclusive results and toxic doses are left out. Cut-off read from the data, not from the text of the source: active = T/C of 150% or more; inactive = T/C below 125%.

Test system: L1210 leukemia ip in BDF1 mice, survival T/C
Experiment: NCI In Vivo Anticancer Drug Screen. Data for tumor model L1210 Leukemia (intraperitoneal) in B6D2F1 (BDF1) mice
Settings: endpoint: mean survival time, higher = longer survival
Method in brief: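 Transplanted-tumor mice were given test agent; controls received vehicle only. Survival readings from the two groups were divided (treated over control).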

[1] = dose: 100.0 mg/kg/injection, schedule: Q01DX009 (ip), vehicle: Klucel (hydroxypropylcellulose) (HPC)
[2] = dose: 100.0 mg/kg/injection, schedule: Q04DX003 (ip), vehicle: Klucel (hydroxypropylcellulose) (HPC)
[3] = dose: 200.0 mg/kg/injection, schedule: Q01DX009 (ip), vehicle: Klucel (hydroxypropylcellulose) (HPC)
[4] = dose: 200.0 mg/kg/injection, schedule: Q04DX003 (ip), vehicle: Klucel (hydroxypropylcellulose) (HPC)
[5] = dose: 400.0 mg/kg/injection, schedule: Q01DX009 (ip), vehicle: Klucel (hydroxypropylcellulose) (HPC)
[6] = dose: 400.0 mg/kg/injection, schedule: Q04DX003 (ip), vehicle: Klucel (hydroxypropylcellulose) (HPC)
[7] = dose: 100.0 mg/kg/injection, schedule: Q01DX001 (ip), vehicle: saline
[8] = dose: 200.0 mg/kg/injection, schedule: Q01DX001 (ip), vehicle: saline
[9] = dose: 400.0 mg/kg/injection, schedule: Q01DX001 (ip), vehicle: saline
[10] = dose: 100.0 mg/kg/injection, schedule: Q04DX002 (ip), vehicle: saline with Tween-80
[11] = dose: 25.0 mg/kg/injection, schedule: Q04DX002 (ip), vehicle: saline
[12] = dose: 50.0 mg/kg/injection, schedule: Q04DX002 (ip), vehicle: saline
[13] = dose: 100.0 mg/kg/injection, schedule: Q04DX002 (ip), vehicle: saline
[14] = dose: 100.0 mg/kg/injection, schedule: Q04DX003 (ip), vehicle: saline
[15] = dose: 25.0 mg/kg/injection, schedule: Q01DX009 (ip), vehicle: Klucel (hydroxypropylcellulose) (HPC)
[16] = dose: 50.0 mg/kg/injection, schedule: Q01DX009 (ip), vehicle: Klucel (hydroxypropylcellulose) (HPC)
[17] = dose: 75.0 mg/kg/injection, schedule: Q01DX001 (ip), vehicle: saline
[18] = dose: 150.0 mg/kg/injection, schedule: Q01DX001 (ip), vehicle: saline
[19] = dose: 300.0 mg/kg/injection, schedule: Q01DX001 (ip), vehicle: saline
[20] = dose: 100.0 mg/kg/injection, schedule: Q01DX001 (ip), vehicle: Klucel (hydroxypropylcellulose) (HPC)
[21] = dose: 200.0 mg/kg/injection, schedule: Q01DX001 (ip), vehicle: Klucel (hydroxypropylcellulose) (HPC)

Measured: T/C

COC1=C(NC(C)(C)C)C(=O)C(OC)=C(NC(C)(C)C)C1=O
inactive: dose: 50.0 mg/kg/injection, schedule: Q01DX001 (ip), vehicle: carboxymethylcellulose (CMC) 103 % of control | dose: 100.0 mg/kg/injection, schedule: Q01DX001 (ip), vehicle: carboxymethylcellulose (CMC) 97 % of control | [1] 109 % of control | [2] 98 % of control | dose: 200.0 mg/kg/injection, schedule: Q01DX001 (ip), vehicle: carboxymethylcellulose (CMC) 109 % of control | [3] 95 % of control | [4] 96 % of control | dose: 400.0 mg/kg/injection, schedule: Q01DX001 (ip), vehicle: carboxymethylcellulose (CMC) 109 % of control | [5] 106 % of control | [6] 100 % of control

O=S(=O)(O)c1cc(I)c(O)c2ncccc12
inactive: dose: 100.0 mg/kg/injection, schedule: Q04DX002 (ip), vehicle: Klucel (hydroxypropylcellulose) (HPC) 102 % of control | dose: 200.0 mg/kg/injection, schedule: Q04DX002 (ip), vehicle: Klucel (hydroxypropylcellulose) (HPC) 95 % of control | dose: 400.0 mg/kg/injection, schedule: Q04DX002 (ip), vehicle: Klucel (hydroxypropylcellulose) (HPC) 95 % of control

IC1CCC(I)C2CCC1O2 (configuration not stated) (tested in a mixture with another compound)
inactive: dose: 50.0 mg/kg/injection, schedule: Q04DX003 (ip), vehicle: Klucel (hydroxypropylcellulose) (HPC) 106 % of control | [1] 106 % of control | [2] 101 % of control | [3] 104 % of control | [4] 98 % of control and 100 % of control | [5] 96 % of control | [6] 100 % of control

O=C1Nc2cccc3cc(O)cc1c23
inactive: [7] 105 % of control | [8] 87 % of control | [9] 92 % of control

COc1cc2c(cc1OC)NCc1cccn1C2
inactive: dose: 25.0 mg/kg/injection, schedule: Q04DX002 (ip), vehicle: saline with Tween-80 101 % of control | dose: 50.0 mg/kg/injection, schedule: Q04DX002 (ip), vehicle: saline with Tween-80 97 % of control | [10] 105 % of control

CCOC(=O)/C(C#N)=C/c1cccn1Cc1cc2ccccc2c2ccccc12
inactive: [11] 111 % of control | [12] 111 % of control | [13] 105 % of control

CCN(CC)CCN(CC)C(=O)C1C(c2ccccc2)C1c1ccccc1 (configuration not stated)
inactive: dose: 25.0 mg/kg/injection, schedule: Q04DX002 (ip), vehicle: Klucel (hydroxypropylcellulose) (HPC) 102 % of control | dose: 50.0 mg/kg/injection, schedule: Q04DX002 (ip), vehicle: Klucel (hydroxypropylcellulose) (HPC) 102 % of control

CCC[N+](CC)(CC)CCOC(=O)C1C2CC3OC(=O)C1C3C2 (configuration not stated)
inactive: [14] 101 % of control

CC(=O)Nc1cc([N+](=O)[O-])ccc1O
inactive: [2] 101 % of control | [4] 101 % of control | [6] 101 % of control

O=C(C[n+]1ccccc1)c1ccccc1
inactive: [11] 98 % of control | [12] 95 % of control | [13] 98 % of control

Cc1ccc(C(c2ccc(C)c(C)c2)C(c2ccc(C)c(C)c2)C(O)C(O)C(O)CO)cc1C (configuration not stated)
inactive: dose: 50.0 mg/kg/injection, schedule: Q01DX001 (ip), vehicle: saline 93 % of control | [7] 106 % of control | [8] 98 % of control | [9] 98 % of control

CN(N=O)C(=O)N(C)C(=O)N(C)N=O
inactive: dose: 6.25 mg/kg/injection, schedule: Q01DX Z (ip), vehicle: carboxymethylcellulose (CMC) 104 % of control | dose: 12.5 mg/kg/injection, schedule: Q01DX Z (ip), vehicle: carboxymethylcellulose (CMC) 112 % of control | dose: 25.0 mg/kg/injection, schedule: Q01DX Z (ip), vehicle: carboxymethylcellulose (CMC) 108 % of control | dose: 50.0 mg/kg/injection, schedule: Q01DX Z (ip), vehicle: carboxymethylcellulose (CMC) 92 % of control

CO[C@H]1/C=C/O[C@@]2(C)Oc3c(C)c(O)c4c(O)c(c(/C=N/N5CCN(C)CC5)c(O)c4c3C2=O)NC(=O)/C(C)=C\C=C\[C@H](C)[C@H](O)[C@@H](C)[C@@H](O)[C@@H](C)[C@H](OC(C)=O)[C@@H]1C
inactive: [15] 96 % of control | dose: 50.0 mg/kg/injection, schedule: Q01DX001 (ip), vehicle: water 97 % of control | [16] 94 % of control | [7] 97 % of control | dose: 100.0 mg/kg/injection, schedule: Q01DX001 (ip), vehicle: water 103 % of control | [1] 94 % of control | [8] 100 % of control | dose: 200.0 mg/kg/injection, schedule: Q01DX001 (ip), vehicle: water 100 % of control | [9] 97 % of control | dose: 400.0 mg/kg/injection, schedule: Q01DX001 (ip), vehicle: water 108 % of control | dose: 1200.0 mg/kg/injection, schedule: Q01DX001 (ip), vehicle: acetone 102 % of control

C=C(C)C1(CCCCC)C(=O)NC(=S)NC1=O
inactive: [17] 100 % of control | [18] 102 % of control | [19] 95 % of control

COc1cccc(/C=C2\SC(=S)NC2=O)c1
inactive: [7] 101 % of control | [8] 95 % of control | [9] 95 % of control

O=C1c2ccccc2C(=O)N1CCl
inactive: [20] 93 % of control | [21] 104 % of control | dose: 400.0 mg/kg/injection, schedule: Q01DX001 (ip), vehicle: Klucel (hydroxypropylcellulose) (HPC) 114 % of control

CC(C)CCOC(=O)C1(C)OC1c1ccccc1 (configuration not stated)
inactive: [13] 101 % of control | dose: 200.0 mg/kg/injection, schedule: Q04DX002 (ip), vehicle: saline 97 % of control | dose: 400.0 mg/kg/injection, schedule: Q04DX002 (ip), vehicle: saline 93 % of control

COc1cc(CC#N)ccc1C
inactive: dose: 12.5 mg/kg/injection, schedule: Q01DX009 (ip), vehicle: alcohol 104 % of control | dose: 25.0 mg/kg/injection, schedule: Q01DX009 (ip), vehicle: alcohol 98 % of control | dose: 50.0 mg/kg/injection, schedule: Q01DX009 (ip), vehicle: alcohol 101 % of control

CNCC/C=C1\c2ccccc2CCSc2ccccc21
inactive: dose: 25.0 mg/kg/injection, schedule: Q04DX003 (ip), vehicle: saline 98 % of control | dose: 50.0 mg/kg/injection, schedule: Q04DX003 (ip), vehicle: saline 101 % of control | [14] 95 % of control and 101 % of control

COC(=O)C(CCC(=O)O)NC(=O)OCc1ccccc1 (configuration not stated)
inactive: [15] 89 % of control | dose: 50.0 mg/kg/injection, schedule: Q01DX001 (ip), vehicle: Klucel (hydroxypropylcellulose) (HPC) 94 % of control | [16] 97 % of control | [20] 103 % of control | [2] 96 % of control | [21] 97 % of control | [4] 86 % of control

Clc1cc(C(Cl)(Cl)Cl)ccc1C(Cl)(Cl)Cl
inactive: [15] 89 % of control | [16] 92 % of control | [1] 90 % of control

N#CC(/C=C/c1ccco1)Nc1ccccc1C(N)=O (configuration not stated)
inactive: [1] 121 % of control | [2] 93 % of control | [3] 121 % of control | [4] 94 % of control | [6] 100 % of control

COc1ccc(OC(=O)Nc2ccc(Cl)cc2[N+](=O)[O-])cc1
inactive: dose: 100.0 mg/kg/injection, schedule: Q01DX009 (ip), vehicle: saline with Tween-80 95 % of control and 96 % of control | [10] 95 % of control and 98 % of control | dose: 100.0 mg/kg/injection, schedule: Q04DX003 (ip), vehicle: saline with Tween-80 97 % of control | dose: 200.0 mg/kg/injection, schedule: Q01DX009 (ip), vehicle: saline with Tween-80 99 % of control and 106 % of control | dose: 200.0 mg/kg/injection, schedule: Q04DX002 (ip), vehicle: saline with Tween-80 95 % of control and 101 % of control | dose: 200.0 mg/kg/injection, schedule: Q04DX003 (ip), vehicle: saline with Tween-80 110 % of control | dose: 400.0 mg/kg/injection, schedule: Q01DX009 (ip), vehicle: saline with Tween-80 99 % of control and 103 % of control | dose: 400.0 mg/kg/injection, schedule: Q04DX002 (ip), vehicle: saline with Tween-80 95 % of control and 98 % of control | dose: 400.0 mg/kg/injection, schedule: Q04DX003 (ip), vehicle: saline with Tween-80 100 % of control

COc1ccc2c3c1OC1C(C)(O)C(O)CC4C(C2)N(C)CCC341 (configuration not stated)
inactive: [17] 98 % of control | [18] 104 % of control | [19] 98 % of control
